Results reported in ChEMBL document CHEMBL3638448, “8-[3-amino-piperidin-1-yl]-xanthines, their preparation and their use as pharmaceutical compositions” (2014).

Target: Dipeptidyl peptidase 4 (Homo sapiens, UniProt P27487)
Assay: Biological Assay: 50 μl of substrate solution (AFC; AFC is amido-4-trifluoromethylcoumarin), final concentration 100 μM, was placed in black microtitre plates. 20 μl of assay buffer (final concentrations 50 mM Tris HCl pH 7.8, 50 mM NaCl, 1% DMSO) was pipetted therein. The reaction was started by the addition of 30 μl of solubilized Caco-2 protein (final concentration 0.14 μg of protein per well). The test substances under investigation were typically added prediluted to 20 μl, while the volume of assay buffer was then reduced accordingly. The reaction was carried out at ambient temperature, the incubation period was 60 minutes. Then the fluorescence was measured in a Victor 1420 Multilabel Counter, with the excitation wavelength at 405 nm and the emission wavelength at 535 nm.

Dipeptidyl peptidase 4, sequence (P27487 whole entry): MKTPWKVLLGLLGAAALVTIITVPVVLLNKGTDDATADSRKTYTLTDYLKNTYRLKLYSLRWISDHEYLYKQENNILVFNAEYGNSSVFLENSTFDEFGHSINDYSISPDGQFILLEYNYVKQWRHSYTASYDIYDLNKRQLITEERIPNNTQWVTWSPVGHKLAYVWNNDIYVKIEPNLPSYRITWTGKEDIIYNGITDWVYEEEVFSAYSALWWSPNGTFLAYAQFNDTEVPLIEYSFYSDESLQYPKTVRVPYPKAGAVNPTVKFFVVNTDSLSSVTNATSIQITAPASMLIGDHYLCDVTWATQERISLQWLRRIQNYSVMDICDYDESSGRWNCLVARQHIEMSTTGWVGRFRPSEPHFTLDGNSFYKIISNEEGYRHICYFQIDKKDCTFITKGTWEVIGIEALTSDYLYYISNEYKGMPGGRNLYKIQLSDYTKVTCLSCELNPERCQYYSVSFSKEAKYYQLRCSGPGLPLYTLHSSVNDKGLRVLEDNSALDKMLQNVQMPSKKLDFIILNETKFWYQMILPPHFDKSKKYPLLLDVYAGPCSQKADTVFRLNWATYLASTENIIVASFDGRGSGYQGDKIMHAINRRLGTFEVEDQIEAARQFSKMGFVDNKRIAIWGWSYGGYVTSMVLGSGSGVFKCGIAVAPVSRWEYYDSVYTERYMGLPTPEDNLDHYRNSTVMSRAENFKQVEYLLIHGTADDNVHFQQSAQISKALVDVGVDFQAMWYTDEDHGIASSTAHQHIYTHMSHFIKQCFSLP

Structure (SMILES) | IC50 [nM]
CC#CCn1c(N2CCCC(NC(=O)OC(C)(C)C)C2)nc2c1c(=O)n(Cc1nc(NCc3ccccc3)c3ccccc3n1)c(=O)n2C (stereo not given) | 6
CC#CCn1c(N2CCC[C@@H](NC(=O)OC(C)(C)C)C2)nc2c1c(=O)n(Cc1cc(C#N)cc3ccccc13)c(=O)n2C | 6
CC#CCn1c(N2CCC[C@@H](NC(=O)OC(C)(C)C)C2)nc2c1c(=O)n(Cc1nc(-c3ccccc3)nc3ccccc13)c(=O)n2C | 9
CC#CCn1c(N2CCC[C@@H](NC(=O)OC(C)(C)C)C2)nc2c1c(=O)n(CC(=O)c1cccc(OC3CC3)c1)c(=O)n2C | 5
CC#CCn1c(N2CCC[C@@H](NC(=O)OC(C)(C)C)C2)nc2c1c(=O)n(Cc1ccc3nc(C)c(C)nc3c1)c(=O)n2C | 2
CC#CCn1c(N2CCC[C@@H](NC(=O)OC(C)(C)C)C2)nc2c1c(=O)n(Cc1nccc(-c3ccccc3)n1)c(=O)n2C | 2

Second part, the molecule after the results:

IC50 [nM] | Structure (SMILES)
2 | CC#CCn1c(N2CCC[C@@H](NC(=O)OC(C)(C)C)C2)nc2c1c(=O)n(Cc1cc(C#N)c3ccccc3n1)c(=O)n2C
2 | CC#CCn1c(N2CCC[C@@H](NC(=O)OC(C)(C)C)C2)nc2c1c(=O)n(CC(=O)c1ccccc1Br)c(=O)n2C
2 | CC#CCn1c(N2CCC[C@@H](NC(=O)OC(C)(C)C)C2)nc2c1c(=O)n(Cc1nc3ccccc3c(C)c1C#N)c(=O)n2C
3 | CC#CCn1c(N2CCC[C@@H](NC(=O)OC(C)(C)C)C2)nc2c1c(=O)n(CC(=O)c1ccccc1[N+](=O)[O-])c(=O)n2C
